Laboratory results published in ChEMBL document CHEMBL5550092, “Synthesis and biological evaluation of triazolones/oxadiazolones as novel urease inhibitors” (Bioorg Med Chem, 2024).
Values belong to the compound of their own block, whether it stands above or below them. Calls of active or inactive are those of the source. The rule behind the calls is not given here.

Assays:
[1] = molecular target: T1, Urease subunit alpha/Urease subunit beta (Helicobacter pylori (strain ATCC 700392 / 26695) (Campylobacterpylori)) (UniProt P69996+P14916); assay: (§1) Inhibition of Helicobacter pylori urease using urea as substrate assessed as decrease in ammonia production incubated for 0.5 hrs by indole phenol method; assay type: protein-complex assay
T1 sequence (P14916 whole entry, looked up): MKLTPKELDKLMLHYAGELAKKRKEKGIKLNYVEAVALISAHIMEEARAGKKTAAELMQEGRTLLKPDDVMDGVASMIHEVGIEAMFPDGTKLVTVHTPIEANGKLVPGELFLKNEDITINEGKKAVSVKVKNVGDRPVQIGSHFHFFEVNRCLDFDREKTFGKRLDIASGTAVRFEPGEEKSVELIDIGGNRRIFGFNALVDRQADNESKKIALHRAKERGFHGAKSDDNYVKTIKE
T1 sequence (P69996 whole entry, looked up): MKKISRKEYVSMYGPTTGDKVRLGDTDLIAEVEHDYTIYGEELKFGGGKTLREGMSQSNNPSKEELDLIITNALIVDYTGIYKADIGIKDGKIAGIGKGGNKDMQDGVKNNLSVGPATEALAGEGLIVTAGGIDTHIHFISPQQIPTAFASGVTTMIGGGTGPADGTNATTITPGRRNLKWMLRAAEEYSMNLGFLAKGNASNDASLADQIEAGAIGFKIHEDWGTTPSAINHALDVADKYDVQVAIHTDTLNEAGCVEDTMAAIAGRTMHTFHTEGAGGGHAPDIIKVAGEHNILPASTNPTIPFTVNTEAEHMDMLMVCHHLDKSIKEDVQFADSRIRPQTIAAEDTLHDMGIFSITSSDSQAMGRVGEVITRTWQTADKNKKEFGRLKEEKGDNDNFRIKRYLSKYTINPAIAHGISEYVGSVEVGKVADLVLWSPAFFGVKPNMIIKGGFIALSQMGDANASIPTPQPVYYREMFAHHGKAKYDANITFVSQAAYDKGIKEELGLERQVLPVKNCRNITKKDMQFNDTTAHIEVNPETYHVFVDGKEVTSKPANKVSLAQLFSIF

[2] = Cytotoxicity against human K562 cells assessed as cell viability at 250 ug/ml incubated for 72 hrs by CCK8 assay relative to control; assay type: toxicity, cell-based; conditions: at 250 µg/mL, read-out: Activity
[3] = Cytotoxicity against human L02 cells assessed as cell viability at 250 ug/ml incubated for 72 hrs by CCK8 assay relative to control; assay type: toxicity, cell-based; conditions: at 250 µg/mL, read-out: Activity
[4] = molecular target: Urease subunit alpha/Urease subunit beta (Helicobacter pylori (strain ATCC 700392 / 26695) (Campylobacterpylori), UniProt P69996); assay: as §1; assay type: protein-complex assay
Sequence of Urease subunit alpha/Urease subunit beta (P69996 whole entry): as the sequence (P69996 whole entry, looked up) above
Sequence of Urease subunit alpha/Urease subunit beta (P14916 whole entry, further chain): as the sequence (P14916 whole entry, looked up) above

[5] = Cytotoxicity against human HepG2 cells assessed as cell viability at 250 ug/ml incubated for 72 hrs by CCK8 assay relative to control; assay type: toxicity, cell-based; conditions: at 250 µg/mL, read-out: Activity
[6] = Cytotoxicity against human SGC-7901 cells assessed as cell viability at 250 ug/ml incubated for 72 hrs by CCK8 assay relative to control; assay type: toxicity, cell-based; conditions: at 250 µg/mL, read-out: Activity
[7] = molecular target: T1, Urease subunit alpha/Urease subunit beta (Helicobacter pylori (strain ATCC 700392 / 26695) (Campylobacterpylori)); assay: Inhibition of urease using urea as substrate assessed as decrease in ammonia production at 800 ug/ml preincubated for 100 min by indole phenol method; assay type: protein-complex assay; conditions: dose 800.0 µg/ml
[8] = molecular target: T1, Urease subunit alpha/Urease subunit beta (Helicobacter pylori (strain ATCC 700392 / 26695) (Campylobacterpylori)); assay: Inhibition of urease using urea as substrate assessed as decrease in ammonia production at 800 ug/ml by indole phenol method; assay type: protein-complex assay; conditions: dose 800.0 µg/ml, time <= 120.0 min

Compound: O=C1OC(Cc2n[nH]c(=O)o2)CN1c1ccccc1OCc1ccccc1 (configuration not stated)
- viability at 72 h, 250 ug/ml [2]: 93.8%
- viability at 72 h, 250 ug/ml [3]: 96.5%
- IC50 [4]: 1.21 µM
- Ki [4]: 0.24 µM
- inhibition [7]: Active
- viability at 72 h, 250 ug/ml [5]: 91.5%
- viability at 72 h, 250 ug/ml [6]: 94.6%
- inhibition [8]: Dose-Dependent Effect

Compound: Cc1cccc(N2CC(c3n[nH]c(=O)o3)OC2=O)c1 (configuration not stated)
- inhibition [1]: inactive

Compound: COc1cccc(N2CC(c3n[nH]c(=O)o3)OC2=O)c1 (configuration not stated)
- IC50 [4]: 108 µM

Compound: CCc1ccccc1N1CC(c2n[nH]c(=O)o2)OC1=O (configuration not stated)
- IC50 [4]: 102 µM

Compound: Cc1cc(C)cc(N2CC(Cc3n[nH]c(=O)o3)OC2=O)c1 (configuration not stated)
- viability at 72 h, 250 ug/ml [2]: 92.7%
- viability at 72 h, 250 ug/ml [3]: 98%
- IC50 [4]: 10.1 µM
- Ki [4]: 6.75 µM
- viability at 72 h, 250 ug/ml [5]: 90.8%
- viability at 72 h, 250 ug/ml [6]: 92.5%

Compound: O=C1OC(c2n[nH]c(=O)o2)CN1c1ccc(OCc2ccccc2)cc1 (configuration not stated)
- IC50 [4]: 73.1 µM

Compound: CCc1cccc(N2CC(c3n[nH]c(=O)o3)OC2=O)c1 (configuration not stated)
- IC50 [4]: 151 µM

Compound: CCc1cccc(N2CC(Cc3n[nH]c(=O)o3)OC2=O)c1 (configuration not stated)
- viability at 72 h, 250 ug/ml [2]: 95.3%
- viability at 72 h, 250 ug/ml [3]: 98.7%
- IC50 [4]: 22.1 µM
- viability at 72 h, 250 ug/ml [5]: 93.1%
- viability at 72 h, 250 ug/ml [6]: 89.3%

Compound: O=C1OC(c2n[nH]c(=O)o2)CN1c1ccccc1 (configuration not stated)
- inhibition [1]: inactive

Compound: Cc1ccc(N2CC(Cc3n[nH]c(=O)o3)OC2=O)cc1C (configuration not stated)
- inhibition [1]: inactive

Compound: CCOc1ccc(N2CC(c3n[nH]c(=O)o3)OC2=O)cc1 (configuration not stated)
- IC50 [4]: 116 µM

Compound: Cc1cccc(N2CC(Cc3n[nH]c(=O)o3)OC2=O)c1 (configuration not stated)
- IC50 [4]: 30.6 µM

Compound: Cc1ccc(N2CC(c3n[nH]c(=O)o3)OC2=O)c(C)c1 (configuration not stated)
- IC50 [4]: 98.7 µM

Compound: O=C1OC(Cc2n[nH]c(=O)o2)CN1c1ccc(OCc2ccccc2)cc1 (configuration not stated)
- IC50 [4]: 45.7 µM

Compound: COc1ccc(N2CC(Cc3n[nH]c(=O)o3)OC2=O)cc1 (configuration not stated)
- inhibition [1]: inactive

Compound: O=C1OC(Cc2n[nH]c(=O)o2)CN1c1cccc(OCc2ccccc2)c1 (configuration not stated)
- viability at 72 h, 250 ug/ml [2]: 90.5%
- viability at 72 h, 250 ug/ml [3]: 94.9%
- IC50 [4]: 19.1 µM
- viability at 72 h, 250 ug/ml [5]: 94.2%
- viability at 72 h, 250 ug/ml [6]: 90.2%

Compound: COc1ccc(N2CC(c3n[nH]c(=O)o3)OC2=O)cc1 (configuration not stated)
- inhibition [1]: inactive

Compound: Cc1ccc(N2CC(c3n[nH]c(=O)o3)OC2=O)cc1 (configuration not stated)
- inhibition [1]: inactive

Compound: CCc1ccc(N2CC(c3n[nH]c(=O)o3)OC2=O)cc1 (configuration not stated)
- IC50 [4]: 162 µM

Compound: CCOc1ccc(N2CC(Cc3n[nH]c(=O)o3)OC2=O)cc1 (configuration not stated)
- IC50 [4]: 61.3 µM

Compound: CCc1ccc(N2CC(Cc3n[nH]c(=O)o3)OC2=O)cc1 (configuration not stated)
- IC50 [4]: 46.1 µM

Compound: Cc1cc(C)cc(N2CC(c3n[nH]c(=O)o3)OC2=O)c1 (configuration not stated)
- inhibition [1]: inactive

Compound: O=C1OC(Cc2n[nH]c(=O)o2)CN1c1ccccc1 (configuration not stated)
- IC50 [4]: 65.2 µM

Compound: O=C1OC(c2n[nH]c(=O)o2)CN1c1cccc(OCc2ccccc2)c1 (configuration not stated)
- viability at 72 h, 250 ug/ml [2]: 90.7%
- viability at 72 h, 250 ug/ml [3]: 98.8%
- IC50 [4]: 20.7 µM
- viability at 72 h, 250 ug/ml [5]: 92.4%
- viability at 72 h, 250 ug/ml [6]: 87.6%

Compound: Cc1ccccc1N1CC(c2n[nH]c(=O)o2)OC1=O (configuration not stated)
- IC50 [4]: 186 µM

Continued, in another order:

- inhibition [1]: inactive
Compound: Cc1ccc(N2CC(Cc3n[nH]c(=O)o3)OC2=O)cc1 (configuration not stated)

- IC50 [4]: 24.6 µM
Compound: CC(C)c1ccc(N2CC(Cc3n[nH]c(=O)o3)OC2=O)cc1 (configuration not stated)
- viability at 72 h, 250 ug/ml [2]: 88.9%
- viability at 72 h, 250 ug/ml [3]: 96.2%
- viability at 72 h, 250 ug/ml [5]: 89.3%
- viability at 72 h, 250 ug/ml [6]: 90.7%

- IC50 [4]: 108 µM
Compound: Cc1cccc(NCC(O)c2n[nH]c(=O)[nH]2)c1 (configuration not stated)

- inhibition [1]: inactive
Compound: COc1cccc(NCC(O)c2n[nH]c(=O)[nH]2)c1 (configuration not stated)

- IC50 [4]: 85.2 µM
Compound: O=c1[nH]nc(C(O)CNc2ccccc2)[nH]1 (configuration not stated)

- IC50 [4]: 93.5 µM
Compound: Cc1ccccc1NCC(O)c1n[nH]c(=O)[nH]1 (configuration not stated)

- IC50 [4]: 40.2 µM
Compound: CC(C)(C)c1ccc(NCC(O)c2n[nH]c(=O)[nH]2)cc1 (configuration not stated)

- inhibition [1]: inactive
Compound: Cc1ccc(NCC(O)c2n[nH]c(=O)[nH]2)cc1 (configuration not stated)

- IC50 [4]: 46.8 µM
Compound: CCOc1ccc(NCC(O)c2n[nH]c(=O)[nH]2)cc1 (configuration not stated)

- IC50 [4]: 90.5 µM
Compound: CCc1cccc(NCC(O)c2n[nH]c(=O)[nH]2)c1 (configuration not stated)

- inhibition [1]: inactive
Compound: COc1ccc(NCC(O)c2n[nH]c(=O)[nH]2)cc1 (configuration not stated)

- IC50 [4]: 38.8 µM
Compound: CCOc1ccccc1NCC(O)c1n[nH]c(=O)[nH]1 (configuration not stated)

- IC50 [4]: 6.31 µM
- Ki [4]: 2.24 µM
Compound: O=c1[nH]nc(C(O)CNc2cccc(OCc3ccccc3)c2)[nH]1 (configuration not stated)
- viability at 72 h, 250 ug/ml [2]: 91.6%
- viability at 72 h, 250 ug/ml [3]: 95.4%
- viability at 72 h, 250 ug/ml [5]: 90.3%
- viability at 72 h, 250 ug/ml [6]: 93.4%

- IC50 [4]: 87.5 µM
Compound: Cc1ccc(NCC(O)c2n[nH]c(=O)[nH]2)c(C)c1 (configuration not stated)

- IC50 [4]: 21.2 µM
Compound: O=c1[nH]nc(C(O)CNc2ccc(OCc3ccccc3)cc2)[nH]1 (configuration not stated)
- viability at 72 h, 250 ug/ml [2]: 89.8%
- viability at 72 h, 250 ug/ml [3]: 94.7%
- viability at 72 h, 250 ug/ml [5]: 89.3%
- viability at 72 h, 250 ug/ml [6]: 94.2%

- IC50 [4]: 110 µM
Compound: CCc1ccc(NCC(O)c2n[nH]c(=O)[nH]2)cc1 (configuration not stated)

- IC50 [4]: 30.7 µM
Compound: Cc1cc(C)cc(NCC(O)c2n[nH]c(=O)[nH]2)c1 (configuration not stated)

- IC50 [4]: 62.6 µM
Compound: CCc1ccccc1NCC(O)c1n[nH]c(=O)[nH]1 (configuration not stated)

- IC50 [4]: 56.8 µM
Compound: CC(C)(C)c1ccc(N2CC(Cc3n[nH]c(=O)o3)OC2=O)cc1 (configuration not stated)

- IC50 [4]: 51.4 µM
Compound: CC(C)c1ccc(NCC(O)c2n[nH]c(=O)[nH]2)cc1 (configuration not stated)
